{"source": "ChEMBL document CHEMBL5321213", "about": "“Nicolaioidesin C: An Antiausterity Agent Shows Promising Antitumor Activity in a Pancreatic Cancer Xenograft Mouse Model” (J Nat Prod, 2023)", "key": {"MIA PaCa-2 [1]": {"tested_on": "MIA PaCa-2", "assay": "Antitumor activity against human MIA PaCa-2 cells xenografted in athymic BALB/c-nu mouse assessed as fold change in desthiobiotin level in tumor at 2 mg/kg/day, ip administered five times per week for 4 weeks by LC-MS analysis", "assay_type": "functional"}, "MIA PaCa-2 [2]": {"tested_on": "MIA PaCa-2", "assay": "Antitumor activity against human MIA PaCa-2 cells xenografted in athymic BALB/c-nu mouse assessed as fold change in benzoic acid level in tumor at 2 mg/kg/day, ip administered five times per week for 4 weeks by LC-MS analysis", "assay_type": "functional"}, "MIA PaCa-2 [3]": {"tested_on": "MIA PaCa-2", "assay": "Antitumor activity against human MIA PaCa-2 cells xenografted in athymic BALB/c-nu mouse assessed as fold change in nicotinamide level in tumor at 10 mg/kg/day, ip administered five times per week for 4 weeks by LC-MS analysis", "assay_type": "functional"}, "MIA PaCa-2 [4]": {"tested_on": "MIA PaCa-2", "assay": "Antitumor activity against human MIA PaCa-2 cells xenografted in athymic BALB/c-nu mouse assessed as fold change in 5'-methylthioadenosine level in tumor at 2 mg/kg/day, ip administered five times per week for 4 weeks by LC-MS analysis", "assay_type": "functional"}, "MIA PaCa-2 [5]": {"tested_on": "MIA PaCa-2", "assay": "Antimetastatic activity in human MIA PaCa-2 cells in DMEM media assessed as inhibition of colony formation at 10 uM incubated for 24 hrs followed by replacement with fresh medium and measured after 10 days by crystal violet staining-based assay relative to control", "assay_type": "functional"}, "[6]": {"assay": "Toxicity in athymic BALB/c-nu mouse xenografted with human MIA PaCa-2 cells assessed as body weight loss at 2 to 10 mg/kg/day, ip administered five times per week for 4 weeks", "assay_type": "organism-based", "conditions": "in vivo, 672 h, dose 2-10 mg/kg/day"}, "MIA PaCa-2 [7]": {"tested_on": "MIA PaCa-2", "assay": "Antimetastatic activity in human MIA PaCa-2 cells in nutrient-rich medium assessed as open wound area at 20 uM measured every 15 mins for 48 hrs by live cell imaging analysis (reference value: 17%)", "assay_type": "functional"}, "MIA PaCa-2 [8]": {"tested_on": "MIA PaCa-2", "assay": "Antitumor activity against human MIA PaCa-2 cells xenografted in athymic BALB/c-nu mouse assessed as reduction in LC3-II level in tumor at 2 to 10 mg/kg/day, ip administered five times per week for 4 weeks by immunohistochemistry analysis", "assay_type": "functional, organism-based", "conditions": "dose 2-10 mg/kg/day"}, "PANC-1 [9]": {"tested_on": "PANC-1", "assay": "Preferential cytotoxicity against human PANC-1 cells in nutrient-deprived medium assessed as alteration in cell morphology by measuring leakage of cell components at 5 uM measured after 24 hrs by acridine orange and ethidium bromide dual fluorescent staining based imaging analysis", "assay_type": "functional"}, "MIA PaCa-2 [10]": {"tested_on": "MIA PaCa-2", "assay": "Antitumor activity against human MIA PaCa-2 cells xenografted in athymic BALB/c-nu mouse assessed as fold change in D-ribulose 5-phosphate level in tumor at 2 mg/kg/day, ip administered five times per week for 4 weeks by LC-MS analysis", "assay_type": "functional"}, "MIA PaCa-2 [11]": {"tested_on": "MIA PaCa-2", "assay": "Antitumor activity against human MIA PaCa-2 cells xenografted in athymic BALB/c-nu mouse assessed as fold change in proline level in tumor at 2 mg/kg/day, ip administered five times per week for 4 weeks by LC-MS analysis", "assay_type": "functional"}, "MIA PaCa-2 [12]": {"tested_on": "MIA PaCa-2", "assay": "Antitumor activity against human MIA PaCa-2 cells xenografted in athymic BALB/c-nu mouse assessed as fold change in methionine level in tumor at 10 mg/kg/day, ip administered five times per week for 4 weeks by LC-MS analysis", "assay_type": "functional"}, "MIA PaCa-2 [13]": {"tested_on": "MIA PaCa-2", "assay": "Antitumor activity against human MIA PaCa-2 cells xenografted in athymic BALB/c-nu mouse assessed as fold change in N-acetyl- L-glutamic acid level in tumor at 2 mg/kg/day, ip administered five times per week for 4 weeks by LC-MS analysis", "assay_type": "functional"}, "PANC-1 [14]": {"tested_on": "PANC-1", "assay": "Inhibition of autophagy in human PANC-1 cells in DMEM medium assessed as downregulation of LC3 protein expression at 5 to 20 uM measured after 6 hrs by Western blot analysis", "assay_type": "functional, cell-based", "conditions": "dose 5-20 µM"}, "MIA PaCa-2 [15]": {"tested_on": "MIA PaCa-2", "assay": "Antitumor activity against human MIA PaCa-2 cells xenografted in athymic BALB/c-nu mouse assessed as fold change in cytidine 5'-monophosphate level in tumor at 10 mg/kg/day, ip administered five times per week for 4 weeks by LC-MS analysis", "assay_type": "functional"}, "MIA PaCa-2 [16]": {"tested_on": "MIA PaCa-2", "assay": "Antitumor activity against human MIA PaCa-2 cells xenografted in athymic BALB/c-nu mouse assessed as fold change in glycerol-3-phosphate level in tumor at 10 mg/kg/day, ip administered five times per week for 4 weeks by LC-MS analysis", "assay_type": "functional"}, "MIA PaCa-2 [17]": {"tested_on": "MIA PaCa-2", "assay": "Antitumor activity against human MIA PaCa-2 cells xenografted in athymic BALB/c-nu mouse assessed as fold change in 2'-deoxycytidine level in tumor at 10 mg/kg/day, ip administered five times per week for 4 weeks by LC-MS analysis", "assay_type": "functional"}, "MIA PaCa-2 [18]": {"tested_on": "MIA PaCa-2", "assay": "Antitumor activity against human MIA PaCa-2 cells xenografted in athymic BALB/c-nu mouse assessed as fold change in uracil level in tumor at 2 mg/kg/day, ip administered five times per week for 4 weeks by LC-MS analysis", "assay_type": "functional"}, "MIA PaCa-2 [19]": {"tested_on": "MIA PaCa-2", "assay": "Antitumor activity against human MIA PaCa-2 cells xenografted in athymic BALB/c-nu mouse assessed as fold change in asparagine level in tumor at 10 mg/kg/day, ip administered five times per week for 4 weeks by LC-MS analysis", "assay_type": "functional"}, "MIA PaCa-2 [20]": {"tested_on": "MIA PaCa-2", "assay": "Preferential cytotoxicity against human MIA PaCa-2 cells in nutrient-deprived medium measured after 24 hrs by WST-8 cell counting analysis", "assay_type": "functional"}, "MIA PaCa-2 [21]": {"tested_on": "MIA PaCa-2", "assay": "Preferential cytotoxicity against human MIA PaCa-2 cells in nutrient-deprived medium assessed as alteration in cell morphology by measuring cell rounding at 5 uM measured after 24 hrs by acridine orange and ethidium bromide dual fluorescent staining based imaging analysis", "assay_type": "functional"}, "MIA PaCa-2 [22]": {"tested_on": "MIA PaCa-2", "assay": "Inhibition of autophagy in human MIA PaCa-2 cells in nutrient-deprived medium assessed as downregulation of LC3-I protein expression measured after 6 hrs by Western blot analysis", "assay_type": "functional, cell-based", "conditions": "dose 5-20 µM"}, "PANC-1 [23]": {"tested_on": "PANC-1", "assay": "Inhibition of Akt/mTOR signaling pathway in human PANC-1 cells in nutrient-deprived medium assessed as reduction in AKT phosphorylation at S473 residue measured after 6 hrs by Western blot analysis", "assay_type": "cell-based", "conditions": "dose 5-20 µM"}, "MIA PaCa-2 [24]": {"tested_on": "MIA PaCa-2", "assay": "Antitumor activity against human MIA PaCa-2 cells xenografted in athymic BALB/c-nu mouse assessed as fold change in hypoxanthine level in tumor at 10 mg/kg/day, ip administered five times per week for 4 weeks by LC-MS analysis", "assay_type": "functional"}, "MIA PaCa-2 [25]": {"tested_on": "MIA PaCa-2", "assay": "Antitumor activity against human MIA PaCa-2 cells xenografted in athymic BALB/c-nu mouse assessed as reduction in Akt phosphorylation at S473 residue in tumor at 10 mg/kg/day, ip administered five times per week for 4 weeks by Western blot analysis", "assay_type": "functional, organism-based"}, "MIA PaCa-2 [26]": {"tested_on": "MIA PaCa-2", "assay": "Antitumor activity against human MIA PaCa-2 cells xenografted in athymic BALB/c-nu mouse assessed as fold change in 3-sulfolacticacid level in tumor at 10 mg/kg/day, ip administered five times per week for 4 weeks by LC-MS analysis", "assay_type": "functional"}, "MIA PaCa-2 [27]": {"tested_on": "MIA PaCa-2", "assay": "Antitumor activity against human MIA PaCa-2 cells xenografted in athymic BALB/c-nu mouse assessed as reduction in p-mTOR level in tumor at 2 to 10 mg/kg/day, ip administered five times per week for 4 weeks by immunohistochemistry analysis", "assay_type": "functional, organism-based", "conditions": "dose 2-10 mg/kg/day"}, "MIA PaCa-2 [28]": {"tested_on": "MIA PaCa-2", "assay": "Antitumor activity against human MIA PaCa-2 cells xenografted in athymic BALB/c-nu mouse assessed as fold change in 1-aminocyclopropanecarboxylicacid level in tumor at 10 mg/kg/day, ip administered five times per week for 4 weeks by LC-MS analysis", "assay_type": "functional"}}, "note": "Activity calls are given as the source filed them. No cut-off for these calls is given here.", "data": [{"smiles": "COc1cc(O)c(C(=O)[C@@H]2CC=C(CCC=C(C)C)C[C@H]2c2ccccc2)c(O)c1", "values": [{"measurement": "fold change (FC)", "setting": "MIA PaCa-2 [1]", "result": 0.63}, {"measurement": "fold change (FC)", "setting": "MIA PaCa-2 [2]", "result": 0.43}, {"measurement": "fold change (FC)", "setting": "MIA PaCa-2 [3]", "result": 0.39}, {"measurement": "fold change (FC)", "setting": "MIA PaCa-2 [4]", "result": 0.33}, {"measurement": "inhibition at 10 µM", "setting": "MIA PaCa-2 [5]", "result": 88, "unit": "%"}, {"measurement": "Activity", "setting": "[6]", "result": "Non-Toxic"}, {"measurement": "Activity", "setting": "MIA PaCa-2 [7]", "result": 66, "unit": "%"}, {"measurement": "Activity", "setting": "MIA PaCa-2 [8]", "result": "Active"}, {"measurement": "Activity", "setting": "PANC-1 [9]", "result": "Active"}, {"measurement": "fold change (FC)", "setting": "MIA PaCa-2 [10]", "result": 0.22}, {"measurement": "fold change (FC)", "setting": "MIA PaCa-2 [11]", "result": 0.62}, {"measurement": "fold change (FC)", "setting": "MIA PaCa-2 [12]", "result": 0.38}, {"measurement": "fold change (FC)", "setting": "MIA PaCa-2 [13]", "result": 0.45}, {"measurement": "inhibition", "setting": "PANC-1 [14]", "result": "inactive"}, {"measurement": "fold change (FC)", "setting": "MIA PaCa-2 [15]", "result": 0.31}, {"measurement": "fold change (FC)", "setting": "MIA PaCa-2 [16]", "result": 0.24}, {"measurement": "fold change (FC)", "setting": "MIA PaCa-2 [17]", "result": 0.31}, {"measurement": "fold change (FC)", "setting": "MIA PaCa-2 [18]", "result": 0.29}, {"measurement": "fold change (FC)", "setting": "MIA PaCa-2 [19]", "result": 0.29}, {"measurement": "PC50", "setting": "MIA PaCa-2 [20]", "result": 2.9, "unit": "µM"}, {"measurement": "Activity", "setting": "MIA PaCa-2 [21]", "result": "Active"}, {"measurement": "inhibition", "setting": "MIA PaCa-2 [22]", "result": "Dose-Dependent Effect"}, {"measurement": "inhibition", "setting": "PANC-1 [23]", "result": "Dose-Dependent Effect"}, {"measurement": "fold change (FC)", "setting": "MIA PaCa-2 [24]", "result": 0.4}, {"measurement": "Activity", "setting": "MIA PaCa-2 [25]", "result": "Active"}, {"measurement": "fold change (FC)", "setting": "MIA PaCa-2 [26]", "result": 0.44}, {"measurement": "Activity", "setting": "MIA PaCa-2 [27]", "result": "Active"}, {"measurement": "fold change (FC)", "setting": "MIA PaCa-2 [28]", "result": 0.61}]}]}
